Here are results for two compounds from patent publication US20240318212A1, “PHOSPHORYLATION OF PHENOLIC PHYTOCHEMICALS BY TWO ENZYMES COUPLED SYSTEM” (National Taiwan University, priority 2023, published 2024).

Data set [1] relates to ErPPK. The experiment in a line: Effect of polyphenol derivatives on ErPPK activity. The data set is classed as biochemical, unclassified Erysipelotrichaceae bacterium. The following applies: 0.25 mM. An excerpt:
FIG. 4 illustrates the effect of polyphenol derivatives on ErPPK. Data are mean SD (n=3), with significance indicated by p<0.05 using t-test. n.s., non-significance.
Considering the known inhibitory effect of aromatic phosphonates on PPK2 enzymes, we investigated the impact of polyphenols and polyphenol phosphates on ErPPK activity to evaluate their integration into a one-pot bi-enzymatic system. LUT was selected as the polyphenol target, based on its incomplete conversion in microbial systems due to its toxic nature.

For data set [2] the following is noted: versus parent genistein; cited from earlier work.
The conditions of data set [3]: versus parent genistein; cited from earlier work. The source holds these as a separate data set.
The subject of data set [4] is ovariectomized rats. The following applies: comparable to estradiol and raloxifene, surpassed genistein; cited from earlier work.

Regarding `O=c1cc(-c2ccc(O)c(O)c2)oc2cc(O)cc(O)c12` [LUT, luteolin], the “inhibitory effect on ErPPK activity” value in data set [1] is “no significant inhibitory effect”.

With `O=c1c(-c2ccc(O)cc2)coc2cc(OP(=O)(O)O)cc(O)c12` [Genistein 7-O-phosphate], the solubility entry in data set [2] is on record as “improved”. Also, the oral bioavailability entry in data set [3] was “improved”. Moreover, the osteoprotective effects entry in data set [4] is “improved”.
